Eleven compounds from PubChem BioAssay (NCI) can be followed below.

“And” between values parts separate entries of the source, which are not always exact repeats. Equal values may be shown once.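 Assay format: 96-well plates, 48-hour exposure. At the GI50, growth is halved. TGI marks complete inhibition of growth.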 Some results are limits rather than exact numbers.

Among the test systems are UACC-62 melanoma; PC-3 prostate; SR leukemia; HCT-116 colon; UACC-257 melanoma; NCI-H23 lung; NCI-H226 lung; DU-145 prostate; K-562 leukemia; HL-60(TB) leukemia.
Common to all, as to experiment: growth of human tumour cells (NCI), 48 h

Consider `O=C(O)c1ccccc1-c1ccccc1C(=O)Nc1ccc2c(c1)Cc1ccccc1-2`, for which the TGI in the assay on UACC-62 melanoma was 32 µM; in the assay on PC-3 prostate, above 100 µM; in the assay with SR leukemia, 65.1 µM; in the assay on HCT-116 colon it was 35.9 µM; in the assay with UACC-257 melanoma, 78.3 µM; with NCI-H23 lung, 36.6 µM. Moreover, the TGI with NCI-H226 lung and in the assay on DU-145 prostate was above 100 µM each time.
For the compound `Cc1cc2oc(=O)c(Cl)c(Cl)c2c(C)c1Cl`, the TGI turned out to be 4.39 µM in the assay on K-562 leukemia; 20.2 µM in the assay on UACC-62 melanoma; 23.6 µM with PC-3 prostate; 14 µM in the assay with HCT-116 colon; 30 µM in the assay with UACC-257 melanoma; 4.93 µM in the assay with HL-60(TB) leukemia. The TGI is 39.7 µM in the assay on NCI-H23 lung, 33.2 µM in the assay on NCI-H226 lung and 27.8 µM in the assay on DU-145 prostate.
In the case of `CC(=O)Nc1cc(C(c2ccccc2)c2ccccc2)cc(C(c2ccccc2)c2ccccc2)c1C`, the GI50 in the assay on K-562 leukemia was 2.83 µM; in the assay on UACC-62 melanoma it was 5.86 µM; in the assay on PC-3 prostate, 4.13 µM; in the assay with HCT-116 colon, 3.28 µM; in the assay on UACC-257 melanoma, 8.72 µM; in the assay with HL-60(TB) leukemia, 3.1 µM. Further, the GI50 in the assay on NCI-H23 lung is 6.22 µM; in the assay on NCI-H226 lung, 6.8 µM; with DU-145 prostate it was above 100 µM. Besides, the TGI in the assay on K-562 leukemia, in the assay with UACC-62 melanoma, in the assay with PC-3 prostate, in the assay on HCT-116 colon, in the assay on UACC-257 melanoma and in the assay with HL-60(TB) leukemia was above 100 µM throughout. Moreover, the TGI in the assay with NCI-H23 lung, with NCI-H226 lung and in the assay with DU-145 prostate was above 100 µM throughout.
For `O=C(CCCCCNC1=CC(=O)c2ccccc2C1=O)NCCC[Te]c1ccccc1`, the GI50 in the assay with K-562 leukemia is 0.72 µM; in the assay on UACC-62 melanoma, 1.32 µM; with PC-3 prostate it was 0.25 µM; in the assay on HCT-116 colon, 0.295 µM; with UACC-257 melanoma it was 2.4 µM; with HL-60(TB) leukemia, 0.315 µM. Further, the GI50 with NCI-H23 lung is 0.336 µM; in the assay on NCI-H226 lung it was 0.335 µM; in the assay with DU-145 prostate it was 0.43 µM. For the same compound, the TGI in the assay on K-562 leukemia is 3.83 µM; in the assay with UACC-62 melanoma, 3.37 µM; in the assay on PC-3 prostate, 2.58 µM; with HCT-116 colon it was 0.98 µM; in the assay with UACC-257 melanoma, 6.33 µM; in the assay on HL-60(TB) leukemia, 4.4 µM. Further, the TGI in the assay on NCI-H23 lung was determined as 1.48 µM; with NCI-H226 lung it was 1.23 µM; in the assay with DU-145 prostate, 1.9 µM.
In the case of `O=C(NC1CCNCC1)c1[nH]ncc1NC(=O)c1c(Cl)cccc1Cl`, the GI50 in the assay with K-562 leukemia is 0.476 µM and 0.403 µM; with UACC-62 melanoma, 1.33 µM and 0.479 µM; with PC-3 prostate it was 0.332 µM and 0.323 µM; in the assay on HCT-116 colon, 0.315 µM and 0.285 µM; with UACC-257 melanoma, 1.42 µM and 1.92 µM; in the assay with HL-60(TB) leukemia, 0.305 µM and 0.285 µM. Besides, the GI50 with NCI-H23 lung was 1.03 µM and 0.393 µM; in the assay with NCI-H226 lung it was 0.346 µM and 0.325 µM; with DU-145 prostate it was 0.417 µM and 0.472 µM. Moreover, the TGI in the assay on K-562 leukemia was above 100 µM; with UACC-62 melanoma it was 3.18 µM and 1.89 µM; in the assay with PC-3 prostate, 5.01 µM and > 10 µM; with HCT-116 colon, above 100 µM; in the assay on UACC-257 melanoma, 4.56 µM and > 7.47 µM; in the assay with HL-60(TB) leukemia it was 1.09 µM and 1.64 µM. Also, the TGI was 9.87 µM and 3.23 µM in the assay on NCI-H23 lung; 4.01 µM and 2.32 µM with NCI-H226 lung; above 23.6 µM with DU-145 prostate.
For the compound `NC(Cn1ccc(=O)c(O)c1)C(=O)O` (stereo unspecified), the TGI with UACC-62 melanoma, in the assay on PC-3 prostate, with SR leukemia, in the assay with HCT-116 colon, in the assay with UACC-257 melanoma and in the assay with HL-60(TB) leukemia was above 100 µM throughout. Besides, the TGI with NCI-H23 lung, with NCI-H226 lung and with DU-145 prostate was above 100 µM each time.
Regarding `S=C(Nc1ccc(Cl)cc1)SC1CCCCC1`, the TGI was above 100 µM with K-562 leukemia; 28.8 µM in the assay with UACC-62 melanoma; above 100 µM with PC-3 prostate; above 100 µM with SR leukemia; 70.8 µM in the assay on HCT-116 colon; 76.5 µM in the assay with UACC-257 melanoma. In addition, the TGI in the assay with NCI-H23 lung is 45.4 µM; in the assay with NCI-H226 lung it was above 100 µM; with DU-145 prostate it was above 100 µM.
As to `CCOC(=O)C1=C(C)NC(C)=C(C(=O)OCC)C1c1cc(Br)c(O)c(OC)c1`, the GI50 in the assay with UACC-62 melanoma is 4.71 µM; with PC-3 prostate, 3.62 µM; in the assay with SR leukemia, 2.01 µM; in the assay on HCT-116 colon it was 3.97 µM; in the assay on UACC-257 melanoma, 12.6 µM; in the assay on HL-60(TB) leukemia, 2.35 µM. Besides, the GI50 is 4.81 µM with NCI-H23 lung, 2.77 µM with NCI-H226 lung and 3.88 µM in the assay with DU-145 prostate. Further, the TGI was 17 µM in the assay on UACC-62 melanoma; 27.2 µM in the assay with PC-3 prostate; 21.2 µM in the assay with SR leukemia; 13.5 µM with HCT-116 colon; 31.4 µM with UACC-257 melanoma; 6.35 µM with HL-60(TB) leukemia. For the same compound, the TGI in the assay on NCI-H23 lung came to 22.4 µM; in the assay on NCI-H226 lung, 12.4 µM; with DU-145 prostate, 13.1 µM.
Take `CC[C@@]1(OC(=O)C(N)CCC(=O)O)C(=O)OCc2c1cc1n(c2=O)Cc2cc3ccccc3nc2-1` (stereo partly specified): the TGI in the assay with K-562 leukemia was above 100 µM; in the assay with UACC-62 melanoma, 0.16 µM; in the assay on PC-3 prostate it was above 100 µM; in the assay with HCT-116 colon, above 100 µM; with UACC-257 melanoma it was 1.63 µM; in the assay on HL-60(TB) leukemia it was 0.508 µM. Besides, the TGI in the assay on NCI-H23 lung came to 0.389 µM; in the assay on NCI-H226 lung, 0.192 µM; with DU-145 prostate, 0.0504 µM.
In the case of `CC(=O)NC1CCCN(O)C(=O)/C=C(/C)CCOC(=O)C(NC(C)=O)CCCN(O)C(=O)/C=C(/C)CCOC(=O)C(NC(C)=O)CCCN(O)C(=O)/C=C(/C)CCOC1=O.[Fe]` (stereo unspecified), the GI50 in the assay with UACC-62 melanoma, in the assay on PC-3 prostate, with SR leukemia, in the assay on HCT-116 colon, in the assay with UACC-257 melanoma and in the assay with HL-60(TB) leukemia was above 100 µM in each case. In addition, the GI50 in the assay on NCI-H23 lung and in the assay on DU-145 prostate was above 100 µM each time. The TGI in the assay on UACC-62 melanoma, in the assay with PC-3 prostate, in the assay with SR leukemia, with HCT-116 colon, in the assay with UACC-257 melanoma and in the assay with HL-60(TB) leukemia was above 100 µM each time. The TGI in the assay on NCI-H23 lung and with DU-145 prostate was above 100 µM each time.
Turning to `O=C(O)CC1C(=O)OC2C3COC(=O)c4cc(O)c(O)c(O)c4-c4c(cc(O)c(O)c4O)C(=O)OC2C(OC(=O)c2cc(O)c(O)c4c2C1C(O)C(=O)O4)C(OC(=O)c1cc(O)c(O)c(O)c1)O3` (stereo unspecified), the TGI is above 100 µM with K-562 leukemia; above 100 µM in the assay with PC-3 prostate; 75.8 µM with SR leukemia; 27.8 µM in the assay on HCT-116 colon; above 100 µM in the assay with UACC-257 melanoma; 30.4 µM in the assay on HL-60(TB) leukemia. Besides, the TGI in the assay with NCI-H23 lung, in the assay with NCI-H226 lung and with DU-145 prostate was above 100 µM in each case.
